# Target: T1, bovine serum albumin (BSA) (Bos taurus, UniProt P02769)
# T1 construct: gene ALB
# Assay: intrinsic fluorescence quenching (double-log Stern-Volmer, binding constant K at […] K); supported by UV absorption, CD and warfarin probe displacement
# Details: read-out: K (10^4 L.mol^- 1) (converted)
# T1 sequence (P02769 25-607): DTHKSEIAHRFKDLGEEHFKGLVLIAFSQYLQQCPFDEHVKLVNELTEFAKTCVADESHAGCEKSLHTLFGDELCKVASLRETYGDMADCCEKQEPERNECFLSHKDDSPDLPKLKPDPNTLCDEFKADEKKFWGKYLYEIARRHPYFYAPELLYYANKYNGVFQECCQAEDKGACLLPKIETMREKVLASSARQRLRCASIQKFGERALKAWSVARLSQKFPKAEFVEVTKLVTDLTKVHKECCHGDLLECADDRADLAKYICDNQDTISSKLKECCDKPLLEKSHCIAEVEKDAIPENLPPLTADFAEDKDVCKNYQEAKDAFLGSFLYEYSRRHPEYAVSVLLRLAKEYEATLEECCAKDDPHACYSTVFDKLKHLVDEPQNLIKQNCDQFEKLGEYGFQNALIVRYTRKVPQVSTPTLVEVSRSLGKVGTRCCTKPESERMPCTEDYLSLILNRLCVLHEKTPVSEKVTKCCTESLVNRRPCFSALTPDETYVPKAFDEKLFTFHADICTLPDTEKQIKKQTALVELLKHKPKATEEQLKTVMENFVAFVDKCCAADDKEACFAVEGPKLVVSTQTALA
structure (smiles),measurement,value
"CCOC(=O)C1=C[C@@H](OC(CC)CC)[C@H](NC(C)=O)[C@@H](N)C1 [OP, (3R,4R,5 S)-4-acetamido-5-amino-3-(1-ethylepoxy)-1-cyclohexene-1-carboxylic acid ethyl ester phosphate]",Kd,47.8 µM

# From publication PMC11227190, “Interaction mechanism of oseltamivir phosphate with bovine serum albumin: multispectroscopic and molecular docking study” (BMC Chemistry, 2024)
